Here are results for nine molecules from US20230295157A1, “3-(1H-IMIDAZOL-2-YL)-2,3,8,8A-TETRAHYDROINDOLIZIN-5(1H)-ONE DERIVATIVES USEFUL AS FACTOR XIA INHIBITORS” (JANSSEN PHARMACEUTICA NV, priority 2020, published 2023).

In one experiment the target is Factor XIa (Homo sapiens (Human), UniProt P03951). In words: Factor XIa inhibition assay (FLINT) utilizing a fluorophore-quencher pair peptide substrate. Type of experiment: biochemical. The following applies: 30 min preincubation, kinetic reads over 30 min, read-out: FXIa Kin Inh IC50. The procedure, abridged:
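FXIa ([…]) preincubated 30 min with compound (11-point 3-fold dilution, top 100 nM, 2% DMSO), then 15 μM quenched FXI Arg146-based peptide added; Tris pH 7.5, CaCl2, BSA, CHAPS. Fluorescence 485/520 nm read kinetically every 5 min over 30 min at RT; IC50 by 4-parameter fit.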

Another experiment deals with human plasma kallikrein (Homo sapiens (Human), UniProt P03952). Description: Kallikrein inhibition assay (FLINT) utilizing a quenched AMC peptide substrate. The experiment is classed as biochemical. The following applies: 30 min preincubation, read-out: Kallikrein Kin Inh IC50. The method in brief: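 Fluorogenic Z-Gly-Pro-Arg-AMC cleavage (50 μM substrate, 2 nM kallikrein, Tris pH 7.5, CaCl2, BSA, CHAPS, 2% DMSO) read kinetically at 340/440 nm for 30 min after 30-min compound pre-incubation. Compounds in 11-point 3-fold series from 1 μM; percent inhibition fitted to four-parameter equation for IC50.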
Sequence of human plasma kallikrein (P03952 391-638): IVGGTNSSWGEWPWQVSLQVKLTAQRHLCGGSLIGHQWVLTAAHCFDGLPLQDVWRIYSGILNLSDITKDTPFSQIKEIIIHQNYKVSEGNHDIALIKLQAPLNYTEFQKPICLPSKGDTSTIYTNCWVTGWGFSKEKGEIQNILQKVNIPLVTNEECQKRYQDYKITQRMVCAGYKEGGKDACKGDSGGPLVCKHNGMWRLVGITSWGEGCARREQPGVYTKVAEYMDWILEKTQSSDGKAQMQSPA
Sequence of human plasma kallikrein (P03952 20-390 partner): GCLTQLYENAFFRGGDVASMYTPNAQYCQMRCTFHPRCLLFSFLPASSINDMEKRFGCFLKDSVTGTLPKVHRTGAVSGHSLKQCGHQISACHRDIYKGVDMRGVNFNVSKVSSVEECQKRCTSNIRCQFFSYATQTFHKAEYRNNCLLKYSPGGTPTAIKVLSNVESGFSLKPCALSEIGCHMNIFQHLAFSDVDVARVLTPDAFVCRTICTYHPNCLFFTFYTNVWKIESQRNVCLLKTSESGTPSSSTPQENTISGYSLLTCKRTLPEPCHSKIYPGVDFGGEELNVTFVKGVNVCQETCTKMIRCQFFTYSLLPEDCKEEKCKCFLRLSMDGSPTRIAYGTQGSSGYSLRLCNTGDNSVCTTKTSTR

Where [1] appears, read: 5Fam-KLTRAETV-K5Tamra substrate 15 μM.
The mark [2] stands for this setting: kinetic reads over 30 min, Z-Gly-Pro-Arg-AMC substrate 50 μM.

Read-outs that look alike come from different tables or passages of the source.

Sequence of Factor XIa (P03951 388-625): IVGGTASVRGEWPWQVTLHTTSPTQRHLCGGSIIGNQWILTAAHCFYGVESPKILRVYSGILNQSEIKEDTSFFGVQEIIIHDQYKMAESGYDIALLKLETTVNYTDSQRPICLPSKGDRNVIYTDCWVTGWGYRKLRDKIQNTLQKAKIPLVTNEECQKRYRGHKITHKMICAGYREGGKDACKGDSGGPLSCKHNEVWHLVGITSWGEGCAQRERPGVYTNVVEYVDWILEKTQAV
Sequence of Factor XIa (P03951 19-387 partner): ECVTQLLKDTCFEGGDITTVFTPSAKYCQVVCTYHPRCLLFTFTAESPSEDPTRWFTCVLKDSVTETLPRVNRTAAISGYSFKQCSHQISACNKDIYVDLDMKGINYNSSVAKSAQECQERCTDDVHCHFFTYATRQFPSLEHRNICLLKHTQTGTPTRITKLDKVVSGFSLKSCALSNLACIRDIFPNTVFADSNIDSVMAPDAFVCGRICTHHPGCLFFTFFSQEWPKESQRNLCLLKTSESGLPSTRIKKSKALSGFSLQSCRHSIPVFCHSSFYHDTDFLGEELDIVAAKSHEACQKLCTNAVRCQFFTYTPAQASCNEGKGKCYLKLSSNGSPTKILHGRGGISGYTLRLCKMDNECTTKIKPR

In the case of `Cn1cnc(-c2c[nH]c([C@@H]3CC[C@H]4CC(c5c(-n6cnnn6)ccc(Cl)c5F)=CC(=O)N43)n2)n1` [Example 274, (3S,8aS)-7-(3-Chloro-2-fluoro-6-(1H-tetrazol-1-yl)phenyl)-3-(4-(1-methyl-1H-1,2,4-triazol-3-yl)-1H-imidazol-2-yl)-2,3,8,8a-tetrahydroindolizin-5(1H)-one], the IC50 is more than 100 nM on Factor XIa (setting [1]) and more than 1 µM on human plasma kallikrein (μM, kinetic reads).
Turning to `Cn1cc(NC(=O)C2CC2)c(-c2c[nH]c([C@@H]3CC[C@H]4CC(c5c(-n6cnnn6)ccc(Cl)c5F)=CC(=O)N43)n2)n1` [Example 275, N-(3-(2-((3S,8aS)-7-(3-Chloro-2-fluoro-6-(1H-tetrazol-1-yl)phenyl)-5-oxo-1,2,3,5,8,8a-hexahydroindolizin-3-yl)-1H-imidazol-4-yl)-1-methyl-1H-pyrazol-4-yl)cyclopropanecarboxamide], the IC50 worked out at 24.4 nM on Factor XIa (setting [1]) and 0.0156 µM on human plasma kallikrein (setting [2]).
Turning to `COc1ccc(-c2c[nH]c([C@@H]3CCC4CC(c5c(-n6cnnn6)ccc(Cl)c5F)=CC(=O)N43)n2)c(NC(=O)C2CC2)c1` (stereo partly drawn) [Example 276, N-(2-(2-((3S)-7-(3-Chloro-2-fluoro-6-(1H-tetrazol-1-yl)phenyl)-5-oxo-1,2,3,5,8,8a-hexahydroindolizin-3-yl)-1H-imidazol-4-yl)-5-methoxyphenyl)cyclopropanecarboxamide], the IC50 at Factor XIa (setting [1]) was determined as 0.6 nM; at human plasma kallikrein (setting [2]), 0.0012 µM.
The matching figures for `O=C1Cc2cc(-c3cnc([C@@H]4CC[C@H]5CC(c6c(-n7cnnn7)ccc(Cl)c6F)=CC(=O)N54)[nH]3)ccc2N1` [Example 283, 5-(2-((3S,8aS)-7-(3-Chloro-2-fluoro-6-(1H-tetrazol-1-yl)phenyl)-5-oxo-1,2,3,5,8,8a-hexahydroindolizin-3-yl)-1H-imidazol-5-yl)indolin-2-one]: 3.5 nM and 0.0059 µM.
In the same order, the values of `CO[C@H]1C[C@@H](c2nc(-c3ccc(N)nc3F)c[nH]2)N2C(=O)C=C(c3c(-n4cnnn4)ccc(Cl)c3F)CC12` (stereo partly drawn) [Example 285, (1 S,3S)-3-(4-(6-Amino-2-fluoropyridin-3-yl)-1H-imidazol-2-yl)-7-(3-chloro-2-fluoro-6-(1H-tetrazol-1-yl)phenyl)-1-methoxy-2,3,8,8a-tetrahydroindolizin-5(1H)-one] are 9.1 nM and 0.207 µM.
Turning to `CNC(=O)c1ccccc1-c1cnc([C@@H]2CCC3CC(c4c(-n5cnnn5)ccc(Cl)c4F)=CC(=O)N32)[nH]1` (stereo partly drawn) [Example 287, 2-(2-((3S)-7-(3-chloro-2-fluoro-6-(1H-tetrazol-1-yl)phenyl)-5-oxo-1,2,3,5,8,8a-hexahydroindolizin-3-yl)-1H-imidazol-5-yl)-N-methylbenzamide], the IC50 on Factor XIa (setting [1]) was approximately 30.4 nM; on human plasma kallikrein (setting [2]), 0.38 µM.
On to `CN(C)C(=O)c1ccccc1-c1c[nH]c([C@@H]2CCC3CC(c4c(-n5cnnn5)ccc(Cl)c4F)=CC(=O)N32)n1` (stereo partly drawn) [Example 288, 2-(2-((3S)-7-(3-Chloro-2-fluoro-6-(1H-tetrazol-1-yl)phenyl)-5-oxo-1,2,3,5,8,8a-hexahydroindolizin-3-yl)-1H-imidazol-4-yl)-N,N-dimethylbenzamide], for which the IC50 is more than 200 nM on Factor XIa (setting [1]) and 1.1 µM at human plasma kallikrein (μM, kinetic reads).
In the case of `CN(C)c1ccccc1-c1c[nH]c([C@@H]2CCC3CC(c4c(-n5cnnn5)ccc(Cl)c4F)=CC(=O)N32)n1` (stereo partly drawn) [Example 289, (3S)-7-(3-Chloro-2-fluoro-6-(1H-tetrazol-1-yl)phenyl)-3-(4-(2-(dimethylamino)phenyl)-1H-imidazol-2-yl)-2,3,8,8a-tetrahydroindolizin-5(1H)-one], the figures for the IC50 on Factor XIa (5Fam-[…]-K5Tamra substrate 15 μM) and on human plasma kallikrein (setting [2]) were more than 200 nM and 0.492 µM, respectively.
As to `NC(=O)c1ccccc1-c1cnc([C@@H]2CCC3CC(c4c(-n5cnnn5)ccc(Cl)c4F)=CC(=O)N32)[nH]1` (stereo partly drawn) [Example 290, 2-(2-((3S)-7-(3-Chloro-2-fluoro-6-(1H-tetrazol-1-yl)phenyl)-5-oxo-1,2,3,5,8,8a-hexahydroindolizin-3-yl)-1H-imidazol-5-yl)benzamide], the IC50 turned out to be 134 nM on Factor XIa (setting [1]) and 1.2 µM on human plasma kallikrein (μM, kinetic reads).

In general, IC50 refers to the point on the concentration scale where inhibition reaches its midpoint.
